What all share (assay type): physicochemical
Data set [1] is described as follows: photoisomerisation: photostationary state, calculated φ(λ) and E(λ), reversible cycling. As to conditions: irradiation at 390 nm. As for the experimental part: In a simple analysis of the PSS(λ) and E(λ), it was approximated that ΦEZ and ΦZE (the quantum efficiencies of the photoisomerisations trans->cis and cis->trans, respectively) are equal and independent of wavelength, and also that the kinetics of spontaneous reversion could be ignored (eg. high-intensity light source). A function φ(λ) was then calculated as per: […]
If ΦEZ and ΦZE are equal and independent of wavelength, φ(λ) gives the true PSS(λ). The wavelength independence of ΦEZ and ΦZE may be an acceptable approximation in regions of relatively strong absorption within the visible spectrum. Their equality may also be an acceptable assumption: since if ΦEZ and ΦZE are unequal but only depend weakly on wavelength in regions of relatively strong absorption, then φ(λ) is a transform of the true PSS(λ); this transform preserves the features of PSS(λ) which were most desired for evaluation in this study as long as ΦEZ and ΦZE are not too different (eg less than a factor of ten difference). Indeed, the calculated φ(λ) were later confirmed by in cellulo experiments to give reliable indications of favourable wavelengths for bulk trans->cis and bulk cis->trans photoisomerisation, which is the benchmark for a suitable analysis of the PSS(λ). The advantages of calculating φ(λ) rather than exhaustively measuring the PSS(λ) experimentally are that (a) the throughput is much faster, (b) the true PSS(λ) may be difficult to achieve at weakly-absorbing wavelengths or with fast-relaxing compounds, (c) the true PSS(λ) may be difficult to measure accurately at wavelengths where one isomer strongly dominates the sample even if both are relatively strongly absorbing, and (d) the variation of PSS(λ) with changes in the local biological microenvironment (polarity, pH etc) may anyway be larger than the error incurred by the assumption φ(λ)═PSS(λ).
Also following the assumption that ΦEZ and ΦZE are equal and independent of wavelength, a photoisomerisation efficiency E(λ) was calculated as per:
E(λ)=[εE(λ)+εZ(λ)]/[εE(390)+εZ(390)]
Larger values of E(λ) therefore denote higher efficiency photoisomerisation (less photon flux is required to approach the PSS(λ)). E(λ) was parametrised to the absorption coefficients at 390 nm, since typically that wavelength gave satisfactorily strong absorption and efficient photoisomerisation. It should be noted that E(λ) are not intercomparable between different compounds. This reflects the realistic scenario that the ΦEZ (or the ΦZE) of two arbitrarily chosen compounds may differ by a significant amount, even if the approximation that ΦEZ and ΦZE are equal and independent of wavelength applies independently to each compound.
A(λstrong) was measured over time in the UV-Vis cuvette in non-degassed PBS left open to the atmosphere, […], at 37° C., while the monochromator was used to apply λirrad alternating between two values λ1 and λ2, chosen to induce net trans->cis and net cis->trans isomerisation respectively. Typical results are presented for compound I.1 (FIG. 3). The absorbance of I.1 (18 μM) was measured at λstrong=378 nm, while the irradiating wavelength was held alternately at λ1=388 nm (50 s; bulk trans->cis) then λ2=508 nm (180 s, bulk cis->trans). Higher absorbance corresponds to a greater amount of trans isomer: an absorbance of 0.27 here corresponds to an approximately 5:1 ratio of trans:cis isomer in the sample, and an absorbance of 0.12 here corresponds to an approximately 1:2 ratio of trans:cis isomer in the sample. […] Typically, compounds of the invention could be bulk-photoisomerised hundreds of times over a timescale of hours (50 representative cycles are shown in FIG. 3 for I.1), such that the majority species in a sample was photocontrollably alternated between the trans-isomer and the cis-isomer. […]

A short description of data set [2]: UV-Vis absorption spectra of trans and cis isomers (λstrong, εE, λiso). As to conditions: PBS pH = 7.4, 20% MeCN. As for the experimental part: A(λmeas, λirrad) is used to indicate the measured UV-Vis absorption spectrum in the range 340 nm<λmeas<650 nm, as a function of the irradiating wavelength λirrad once PSS(λirrad) has been established. UV-Vis measurement of A(λmeas, λirrad) was performed. It was considered that the PSS had been established when the absorbance profile ceased to alter under continued irradiation. An isosbestic point (wavelength λiso) was found for each compound by examining where the absorption A(λmeas) was invariant with respect to changing λirrad. A(λmeas, dark) was also acquired with samples that had been kept in the dark for at least several hours, and it was assumed that no significant spectral contribution from the cis isomer was present in these spectra. […]
HPLC (high-performance liquid chromatography) was then used as described in Part A to measure ε*E(λ) and ε*Z(λ) (the separated absorption profiles of trans and cis isomers respectively, in arbitrary units which are not intercomparable in an absolute sense). It was approximated that these spectra would be identical in shape if measured under the UV-Vis conditions, so once ε*E(λ) and ε*Z(λ) were scaled appropriately relative to each other, these scaled spectra could be used to deconvolute A(λmeas, λirrad). This approximation was considered useful especially in the regions of greatest spectral interest, ie. regions of relatively strong absorption (since only rather well-absorbed wavelengths will allow significant photoisomerisation under finite photon flux). To place the arbitrary-unit absorption spectra on an absolute scale, the maximal absorption wavelength λstrong of the trans-isomer was first selected by examining A(λmeas, dark): typically, λstrong≈380 nm. with Expressing A(λstrong, dark) in units M^−1cm^−1, ε*E(λstrong) was then scaled so that εE(λstrong)=A(λstrong, dark), giving:
εE(λ)=ε*E(λ)×[A(λstrong,dark)/ε*E(λstrong)]
and the isosbestic point was used to scale the cis-isomer spectrum as per:
εZ(λ)=ε*Z(λ)×[εE(λiso)/ε*Z(λiso)]
However, using A(λstrong, dark) was preferred, since A(λiso) was typically so much smaller that the standard deviation in the scaled absorptivities which it generated was far greater.
Absorption spectra in cuvette (“UV-Vis”) were acquired on a Varian CaryScan 50 (1 cm, 100 μL or 1 mL volume) with Peltier cell temperature control unit maintained at 37° C., in PBS at pH˜7.4 containing a low percentage of cosolvent if needed (typically 2% MeCN or 5% DMSO). A ThorLabs Polychrome V monochromator with a fibre optic cable output directed into the cuvette was used to perform photoisomerisation studies by UV-Vis spectrophotometry although single LEDs of approximately 10-20 mW output, 15-20° cone angle, and 10-15 nm bandwidth FWHM, obtained commercially from Roithner Lasertechnik GmbH, were equally successful in providing repeatable monochromatic photoisomerisation. Separated spectra of trans and […] forms were acquired from the inline Diode Array Detector on the AGILENT 1260 SL coupled LC-MS system after HPLC separation. Fluorescence spectrophotometry (excitation and emission spectra) were acquired on a Varian CaryEclipse fluorescence spectrophotometer.
By the above procedure, the trans- and cis-isomers of each species were separated by HPLC as described in Part A, and ε*E(λ) and ε*Z(λ) were measured on the inline ultraviolet/visible Diode Array Detector; these were then scaled as outlined above. The parameters λstrong, εE(λstrong) and λiso are tabulated for selected compounds below (Table 1).

A short description of data set [3]: thermal reversion halflife of spontaneous cis->trans isomerisation. The settings on record: PBS pH = 7.4, 20% MeCN. An excerpt:
Finally, trends in τ were ascertained by establishing the PSS at λstrong, then turning off the light source at time t0, and measuring A(λstrong, t) over time. Data were acquired for half an hour, or else the first three halflives (whichever was the shorter period), then fitted to the equation:
A(λstrong,t)=A(λstrong,dark)−[A(λstrong,dark)−A(λstrong,t0)]×e^−kt
This fit was used to return an in vitro halflife τ* for the cis->trans spontaneous thermal reversion isomerisation process, defined as τ=ln 2/k. It should be noted however, that azoaryl compounds' thermal reversion rates are known to depend strongly upon their microenvironment, such as pH and solvent/solvation effects^[7,38]. This was shown for compound (I.1), where a change of only 1.4 pH units gave a 25% change in τ*; note that different compounds are expected to respond very differently to changes in pH so no unifying trends are expected. Therefore the τ* acquired in vitro were considered appropriate only for qualitative intercomparison between samples (trend of τ* vs structure), rather than quantitative prediction of the τ values which might be experienced in cellulo or in vivo. Indeed, these in vitro τ* values appeared at least three times longer than what would have been expected based on in cellulo experiments where the pause time between activating pulses was varied.
Thermal reversion times were measured as described above. Those for selected compounds are presented below (Table 2).

Consider `COc1ccc(N=Nc2cc(OC)c(OC)c(OC)c2)c(O)c1` [I.8, 5-methoxy-2-((3,4,5-trimethoxyphenyl)diazenyl)phenol], for which the “change in absorbance spectrum upon irradiation” value in data set [1] is “no measurable change in absorbance spectrum”. In data set [2], the “εE(λstrong)” value came out at 14900 M⁻¹ cm⁻¹ and the λstrong was determined as 390 nm. For the same compound, the “τ, reversion time” value in data set [3] is “TOO FAST”.
As to `COc1ccc(N=Nc2cc(OC)c(OC)c(OC)c2)c(N)c1` [I.16, 5-methoxy-2-((3,4,5-trimethoxyphenyl)diazenyl)aniline], the “change in absorbance spectrum upon irradiation” value in data set [1] was “no measurable change in absorbance spectrum”. In addition, in data set [2], the “εE(λstrong)” value turned out to be 14430 M⁻¹ cm⁻¹ and the λstrong worked out at 410 nm. For the same compound, the “τ, reversion time” value in data set [3] is given as “TOO FAST”.
The like results for `COc1ccc(N=Nc2cc(OC)c(OC)c(OC)c2)c(O)c1C` [I.17, 3-methoxy-2-methyl-6-((3,4,5-trimethoxyphenyl)diazenyl)phenol] were, in that order, “no measurable change in absorbance spectrum”, 10872 M⁻¹ cm⁻¹, 385 nm and “TOO FAST”.
